Results taken from US20210309951A1, “USE OF NATURAL FLAVORS AND NATURAL SMOKE FLAVORS TO ENHANCE FUNCTIONALITY OF BUFFERED ORGANIC ACIDS AND METHODS FOR PRODUCING THE SAME” (Kerry Luxembourg S.à.r.I., priority 2020, published 2021).

Target: lysine residues on bovine serum albumin (Bos taurus, UniProt P02769)
Assay: Protein crosslinking method (reactivity with lysine residues)
Assay type: biochemical
Details: 30 mM working concentration, 70° C., BSA 10 mg/mL; among standard reference materials
Protocol: Selected active carbonyl compounds (glycolaldehyde, glyoxal, methyl glyoxal, and other carbonyls) were compared for their protein crosslinking capability. Standard reference materials were purchased from Sigma Aldrich [Glycolaldehyde (material no. G6805-5G, batch no. STBG0623V), Glyoxal (material no. 128465-500G, batch no. STBH8032), Methylglyoxal (material no. M0252-250 ml, batch no. BCBT1161), and other carbonyl (material no. F8775-500 ml, batch no. MKCK0272)]. Glutaraldehyde used as a reference material. The protein crosslinking capability was measured as their reactivity with lysine residues on bovine serum albumin (FIG. 6). In the Protein Crosslinking method, experiments were conducted at 30 mM working concentration of individual carbonyls and at 70° C.
Two IsoFin Products were made using two different types of natural liquid smoke flavors (CS9 and MA45GF) and were compared for total carbonyls and protein crosslinking capability. Among the two, the IsoFin B (CS9 based) was made with 50% CS9 (lot #0218938702, Zesti Smoke, Kerry America Region, Monterey, Tenn.) and 50% Homestyle vinegar flavor (IsoAge Technologies, Springfield, Mo.), whereas the IsoFin B (MA45GF based) was made with 9% MA45GF (lot #0214042186, Red Arrow, Kerry America Region, Manitowoc, Wis.)), 1% 300 grain vinegar (lot #09918209), and 90% Homestyle vinegar flavor. […]

lysine residues on bovine serum albumin, sequence (P02769 25-607): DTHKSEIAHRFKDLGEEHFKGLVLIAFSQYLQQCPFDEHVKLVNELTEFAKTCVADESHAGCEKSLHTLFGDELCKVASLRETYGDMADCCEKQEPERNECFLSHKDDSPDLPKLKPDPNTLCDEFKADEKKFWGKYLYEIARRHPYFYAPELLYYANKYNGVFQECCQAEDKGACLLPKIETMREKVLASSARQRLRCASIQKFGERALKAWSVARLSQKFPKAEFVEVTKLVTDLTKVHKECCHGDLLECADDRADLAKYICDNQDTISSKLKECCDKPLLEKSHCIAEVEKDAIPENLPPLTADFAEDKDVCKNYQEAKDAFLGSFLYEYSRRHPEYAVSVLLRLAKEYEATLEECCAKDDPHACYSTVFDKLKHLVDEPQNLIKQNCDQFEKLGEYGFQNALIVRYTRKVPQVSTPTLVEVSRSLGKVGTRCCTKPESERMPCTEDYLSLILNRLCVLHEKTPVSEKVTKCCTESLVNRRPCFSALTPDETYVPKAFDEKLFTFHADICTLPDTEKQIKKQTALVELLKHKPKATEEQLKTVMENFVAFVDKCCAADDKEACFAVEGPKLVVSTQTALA

reactivity with lysine (protein crosslinking capability): maximum reactivity with lysine
SMILES: O=CCO [glycolaldehyde, Glycolaldehyde]
